Results as given in PMC4465922 (Nature chemical biology, 2015).

Target: T1, α2C-adrenergic receptor (α2C-AR) (Homo sapiens, UniProt P18825)
T1 sequence (P18825 1-462): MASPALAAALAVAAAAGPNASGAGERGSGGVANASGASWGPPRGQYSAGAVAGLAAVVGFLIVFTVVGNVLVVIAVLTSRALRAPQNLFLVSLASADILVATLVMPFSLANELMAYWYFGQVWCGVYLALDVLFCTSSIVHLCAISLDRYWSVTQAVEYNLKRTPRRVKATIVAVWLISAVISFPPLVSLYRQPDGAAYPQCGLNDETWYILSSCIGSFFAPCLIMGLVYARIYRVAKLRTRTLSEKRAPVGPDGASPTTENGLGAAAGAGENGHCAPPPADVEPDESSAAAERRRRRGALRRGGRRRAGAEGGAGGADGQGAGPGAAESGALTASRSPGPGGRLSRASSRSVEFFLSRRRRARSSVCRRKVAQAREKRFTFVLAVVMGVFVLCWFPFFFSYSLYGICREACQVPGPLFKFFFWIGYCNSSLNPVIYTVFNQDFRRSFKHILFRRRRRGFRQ
Assay: [3H]NE competition radioligand binding on HEK293T membranes
Format: cell-based

Q: Which EC50 does the source give for NC[C@H](O)c1ccc(O)c(O)c1 [NE, L-(–)-norepinephrine] here?
A: 1.2 ± 0.4 nM
